Reference: US11725036B2, “Modified lipidated relaxin B chain peptides and their therapeutic use” (Sanofi, priority 2018, dated 2023)
Starred links: 1 amine or outer side, 2 acyl side, 3 side chain; linkers in the order of their positions; H or OH if unused. Non-standard residues stand in square brackets, D forms with d. Residues, ends and D or L forms follow the SMILES beside them. Groups on a side chain read outwards from the residue. *: point of attachment. X5 = CCCCCCCCCCCCCCCC(=O)N[C@@H](CCC(=O)N[C@@H](CCC(=O)N[C@@H](CCC(=O)NCCCOCCOCCOCCCNC(=O)CCC(=O)NCCCOCCOCCOCCCNC(=O)CCC(=O)NCCCOCCOCCOCCCNC(=O)CCC(=O)NCCCOCCOCCOCCCN*)C(=O)O)C(=O)O)C(=O)O; X3 = CCCCCCCCCCCCCCCCCC(=O)N[C@@H](CCC(=O)N[C@@H](CCC(=O)N[C@@H](CCC(=O)NCCCOCCOCCOCCCNC(=O)CCC(=O)NCCCOCCOCCOCCCNC(=O)CCC(=O)NCCCOCCOCCOCCCN*)C(=O)O)C(=O)O)C(=O)O; X1 = CCCCCCCCCCCCCCCC(=O)N[C@@H](CCC(=O)N[C@@H](CCC(=O)N[C@@H](CCC(=O)NCCCOCCOCCOCCCNC(=O)CCC(=O)NCCCOCCOCCOCCCNC(=O)CCC(=O)NCCCOCCOCCOCCCN*)C(=O)O)C(=O)O)C(=O)O; Cit = NC(=O)NCCC[C@H](N)C(=O)O; Suc = O=C(CCC(=O)[*:2])[*:1]; αMeK = C[C@](N)(CCCCN)C(=O)O; Aib = CC(C)(N)C(=O)O

Molecular target: T1, RXFP1 (Homo sapiens, UniProt Q9HBX9)
T1 construct: OVCAR5 cells expressing endogenous RXFP1; endogenous in cells; host or cells: OVCAR5
T1 sequence (Q9HBX9 1-757): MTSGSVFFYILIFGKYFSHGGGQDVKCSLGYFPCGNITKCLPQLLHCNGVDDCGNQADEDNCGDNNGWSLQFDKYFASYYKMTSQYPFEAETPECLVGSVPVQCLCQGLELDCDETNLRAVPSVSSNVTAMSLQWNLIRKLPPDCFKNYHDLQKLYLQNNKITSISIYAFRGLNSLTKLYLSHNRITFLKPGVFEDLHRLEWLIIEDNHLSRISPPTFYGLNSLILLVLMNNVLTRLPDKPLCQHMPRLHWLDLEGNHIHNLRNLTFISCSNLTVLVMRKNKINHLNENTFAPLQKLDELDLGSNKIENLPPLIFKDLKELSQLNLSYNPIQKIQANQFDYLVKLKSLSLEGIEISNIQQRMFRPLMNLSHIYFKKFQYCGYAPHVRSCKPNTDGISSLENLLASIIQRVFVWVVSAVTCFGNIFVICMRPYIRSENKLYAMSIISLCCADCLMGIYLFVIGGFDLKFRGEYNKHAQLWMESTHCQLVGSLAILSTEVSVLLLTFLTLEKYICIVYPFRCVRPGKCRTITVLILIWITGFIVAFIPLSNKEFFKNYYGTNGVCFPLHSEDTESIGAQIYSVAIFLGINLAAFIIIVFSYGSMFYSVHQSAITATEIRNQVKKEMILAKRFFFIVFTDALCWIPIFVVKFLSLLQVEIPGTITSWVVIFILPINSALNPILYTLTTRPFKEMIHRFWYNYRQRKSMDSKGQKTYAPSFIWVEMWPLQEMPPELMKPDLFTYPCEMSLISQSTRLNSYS
Assay: OVCAR5 cAMP assay (HTRF)
Format: cell-based
Settings: for EC50: OVCAR 5 cells expressing endogenous RXFP1, cAMP readout; for Emax: OVCAR 5 cells, maximal cAMP relative to H2-relaxin
Summary of the method: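 Endogenous RXFP1 in OVCAR5 cells, pretreated 40 min at 37° C with 1 mM IBMX, then exposed to increasing peptide concentrations in serum-free medium for 30 min at 37° C. cAMP read by HTRF; EC50 by variable-slope sigmoidal fit, Emax as % of H2-relaxin maximal cAMP in same run.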

Row | SMILES | EC50 [nM] | Emax [%]
1 | CCCCCCCCCCCCCCCC(=O)N[C@@H](CCC(=O)N[C@@H](CCC(=O)N[C@@H](CCC(=O)NCCCOCCOCCOCCCNC(=O)CCC(=O)NCCCOCCOCCOCCCNC(=O)CCC(=O)NCCCOCCOCCOCCCNC(=O)CCC(=O)NCCCC[C@H](NC(=O)CNC(=O)[C@H](CCC(=O)O)NC(=O)C(C)(C)NC(=O)C(C)(C)NC(=O)[C@@H](NC(=O)[C@H](CCCCNC(C)=O)NC(=O)[C@H](C)NC(=O)[C@H](CCCNC(=N)N)NC(=O)[C@@H](NC(=O)[C@H](CCCCN)NC(=O)[C@H](CCC(=O)O)NC(=O)[C@H](CCCNC(=N)N)NC(=O)CNC(=O)[C@H](CCC(=O)O)NC(=O)[C@H](CC(C)C)NC(C)=O)C(C)C)[C@@H](C)CC)C(=O)N[C@@H](CO)C(=O)N[C@H](C(=O)N[C@@H](Cc1c[nH]c2ccccc12)C(=O)N[C@@H](CO)C(=O)N[C@@](C)(CCCCN)C(=O)N[C@@H](CCCNC(=N)N)C(=O)N[C@@H](C)C(=O)N[C@@H](CCCCNC(C)=O)C(N)=O)[C@@H](C)O)C(=O)O)C(=O)O)C(=O)O [compound 11] (Ac-LEGREKVRAK(Ac)I[Aib][Aib]EGK([Suc-X1])STWS[αMeK]RAK(Ac)-NH2) | 0.83 | 93
2 | CCCCCCCCCCCCCCCC(=O)N[C@@H](CCC(=O)N[C@@H](CCC(=O)N[C@@H](CCC(=O)NCCCOCCOCCOCCCNC(=O)CCC(=O)NCCCOCCOCCOCCCNC(=O)CCC(=O)NCCCOCCOCCOCCCNC(=O)CCC(=O)NCCCC[C@H](NC(=O)CNC(=O)[C@H](CCC(=O)O)NC(=O)C(C)(C)NC(=O)C(C)(C)NC(=O)[C@@H](NC(=O)[C@H](CCCNC(N)=O)NC(=O)[C@H](C)NC(=O)[C@H](CCCNC(=N)N)NC(=O)[C@@H](NC(=O)[C@H](CCCCN)NC(=O)[C@H](CCC(=O)O)NC(=O)[C@H](CCCNC(=N)N)NC(=O)CNC(=O)[C@H](CCC(=O)O)NC(=O)[C@H](CC(C)C)NC(C)=O)C(C)C)[C@@H](C)CC)C(=O)N[C@@H](CO)C(=O)N[C@H](C(=O)N[C@@H](Cc1ccccc1)C(=O)N[C@@H](CO)C(=O)N[C@@](C)(CCCCN)C(=O)N[C@@H](CCCNC(=N)N)C(=O)N[C@@H](C)C(=O)N[C@@H](CCCCNC(C)=O)C(N)=O)[C@@H](C)O)C(=O)O)C(=O)O)C(=O)O [compound 12] (Ac-LEGREKVRA[Cit]I[Aib][Aib]EGK([Suc-X1])STFS[αMeK]RAK(Ac)-NH2) | 0.93 | 90
3 | CCCCCCCCCCCCCCCC(=O)N[C@@H](CCC(=O)N[C@@H](CCC(=O)N[C@@H](CCC(=O)NCCCOCCOCCOCCCNC(=O)CCC(=O)NCCCOCCOCCOCCCNC(=O)CCC(=O)NCCCOCCOCCOCCCNC(=O)CCC(=O)NCCCC[C@H](NC(=O)CNC(=O)[C@H](CCC(=O)O)NC(=O)C(C)(C)NC(=O)C(C)(C)NC(=O)[C@@H](NC(=O)[C@H](CCCCNC(C)=O)NC(=O)[C@H](C)NC(=O)[C@H](CCCNC(=N)N)NC(=O)[C@@H](NC(=O)[C@H](CCCCN)NC(=O)[C@H](CCC(=O)O)NC(=O)[C@H](CCCNC(=N)N)NC(=O)CNC(=O)[C@H](CCC(=O)O)NC(=O)[C@H](CC(C)C)NC(C)=O)C(C)C)[C@@H](C)CC)C(=O)N[C@@H](CO)C(=O)N[C@H](C(=O)N[C@@H](Cc1ccccc1)C(=O)N[C@@H](CO)C(=O)N[C@H](CCCCN)C(=O)N[C@@H](CCCNC(=N)N)C(=O)N[C@@H](C)C(=O)N[C@@H](CCCCNC(C)=O)C(N)=O)[C@@H](C)O)C(=O)O)C(=O)O)C(=O)O [compound 36] (Ac-LEGREKVRAK(Ac)I[Aib][Aib]EGK([Suc-X1])STFS[dK]RAK(Ac)-NH2) | 3.6 | 93

Now those with a lower EC50, led by results:

Row | EC50 [nM] | Emax [%] | SMILES
4 | 0.3 | 92 | CCCCCCCCCCCCCCCC(=O)N[C@@H](CCC(=O)N[C@@H](CCC(=O)N[C@@H](CCC(=O)NCCCOCCOCCOCCCNC(=O)CCC(=O)NCCCOCCOCCOCCCNC(=O)CCC(=O)NCCCOCCOCCOCCCNC(=O)CCC(=O)NCCCC[C@H](NC(=O)CNC(=O)[C@H](CCC(=O)O)NC(=O)C(C)(C)NC(=O)C(C)(C)NC(=O)[C@@H](NC(=O)[C@H](CCCCNC(C)=O)NC(=O)C(C)(C)NC(=O)[C@H](CCCNC(=N)N)NC(=O)[C@@H](NC(=O)[C@H](CCCNC(=N)N)NC(=O)[C@H](CCC(=O)O)NC(=O)[C@H](CCCNC(=N)N)NC(=O)CNC(=O)[C@H](CCC(=O)O)NC(=O)[C@H](CC(C)C)NC(C)=O)C(C)C)[C@@H](C)CC)C(=O)N[C@@H](CO)C(=O)N[C@H](C(=O)N[C@@H](Cc1c[nH]c2ccccc12)C(=O)N[C@@H](CO)C(=O)NC(C)(C)C(=O)N[C@@H](CCCNC(=N)N)C(=O)N[C@@H](CCCNC(=N)N)C(=O)N[C@@H](CCCCNC(C)=O)C(N)=O)[C@@H](C)O)C(=O)O)C(=O)O)C(=O)O [compound 85] (Ac-LEGRERVR[Aib]K(Ac)I[Aib][Aib]EGK([Suc-X1])STWS[Aib]RRK(Ac)-NH2)
5 | 0.21 | 89 | CCCCCCCCCCCCCCCCCC(=O)N[C@@H](CCC(=O)N[C@@H](CCC(=O)N[C@@H](CCC(=O)NCCCOCCOCCOCCCNC(=O)CCC(=O)NCCCOCCOCCOCCCNC(=O)CCC(=O)NCCCOCCOCCOCCCNC(=O)CCC(=O)NCCCC[C@H](NC(=O)CNC(=O)[C@H](CCC(=O)O)NC(=O)C(C)(C)NC(=O)C(C)(C)NC(=O)[C@@H](NC(=O)[C@H](CCCCNC(C)=O)NC(=O)[C@H](C)NC(=O)[C@H](CCCNC(=N)N)NC(=O)[C@@H](NC(=O)[C@H](CCCCN)NC(=O)[C@H](CCC(=O)O)NC(=O)[C@H](CCCNC(=N)N)NC(=O)CNC(=O)[C@H](CCC(=O)O)NC(=O)[C@H](CC(C)C)NC(C)=O)C(C)C)[C@@H](C)CC)C(=O)N[C@@H](CO)C(=O)N[C@H](C(=O)N[C@@H](Cc1c[nH]c2ccccc12)C(=O)N[C@@H](CO)C(=O)N[C@@](C)(CCCCN)C(=O)N[C@@H](CCCNC(=N)N)C(=O)N[C@@H](C)C(=O)N[C@@H](CCCCNC(C)=O)C(N)=O)[C@@H](C)O)C(=O)O)C(=O)O)C(=O)O [compound 30] (Ac-LEGREKVRAK(Ac)I[Aib][Aib]EGK([Suc-X3])STWS[αMeK]RAK(Ac)-NH2)
6 | 0.14 | 97 | CCCCCCCCCCCCCCCC(=O)N[C@@H](CCC(=O)N[C@@H](CCC(=O)N[C@@H](CCC(=O)NCCCOCCOCCOCCCNC(=O)CCC(=O)NCCCOCCOCCOCCCNC(=O)CCC(=O)NCCCOCCOCCOCCCNC(=O)CCC(=O)NCCCC[C@H](NC(=O)CNC(=O)[C@H](CCC(=O)O)NC(=O)C(C)(C)NC(=O)[C@H](C)NC(=O)[C@@H](NC(=O)[C@H](CCCCNC(C)=O)NC(=O)[C@H](C)NC(=O)[C@H](CCCNC(=N)N)NC(=O)[C@@H](NC(=O)[C@H](CCCCN)NC(=O)[C@H](CCC(=O)O)NC(=O)[C@H](CCCNC(=N)N)NC(=O)CNC(=O)[C@H](CCC(=O)O)NC(=O)[C@H](CC(C)C)NC(C)=O)C(C)C)[C@@H](C)CC)C(=O)N[C@@H](CO)C(=O)N[C@H](C(=O)N[C@@H](Cc1ccccc1)C(=O)N[C@@H](CO)C(=O)N[C@@](C)(CCCCN)C(=O)N[C@@H](CCCNC(=N)N)C(=O)N[C@@H](C)C(=O)N[C@@H](CCCCNC(C)=O)C(N)=O)[C@@H](C)O)C(=O)O)C(=O)O)C(=O)O [compound 90] (Ac-LEGREKVRAK(Ac)IA[Aib]EGK([Suc-X1])STFS[αMeK]RAK(Ac)-NH2)
7 | 0.11 | 98 | CCCCCCCCCCCCCCCC(=O)N[C@@H](CCC(=O)N[C@@H](CCC(=O)N[C@@H](CCC(=O)NCCCOCCOCCOCCCNC(=O)CCC(=O)NCCCOCCOCCOCCCNC(=O)CCC(=O)NCCCOCCOCCOCCCNC(=O)CCC(=O)NCCCOCCOCCOCCCNC(=O)CCC(=O)NCCCC[C@H](NC(=O)CNC(=O)[C@H](CCC(=O)O)NC(=O)C(C)(C)NC(=O)C(C)(C)NC(=O)[C@@H](NC(=O)[C@H](CCCCNC(C)=O)NC(=O)[C@H](C)NC(=O)[C@H](CCCNC(=N)N)NC(=O)[C@@H](NC(=O)[C@H](CCCNC(=N)N)NC(=O)[C@H](CCC(=O)O)NC(=O)[C@H](CCCNC(=N)N)NC(=O)CNC(=O)[C@H](CCC(=O)O)NC(=O)[C@H](CC(C)C)NC(C)=O)C(C)C)[C@@H](C)CC)C(=O)N[C@@H](CO)C(=O)N[C@H](C(=O)N[C@@H](Cc1ccccc1)C(=O)N[C@@H](CO)C(=O)NC(C)(C)C(=O)N[C@@H](CCCNC(=N)N)C(=O)N[C@@H](CCCNC(=N)N)C(=O)N[C@@H](CCCCNC(C)=O)C(N)=O)[C@@H](C)O)C(=O)O)C(=O)O)C(=O)O [compound 77] (Ac-LEGRERVRAK(Ac)I[Aib][Aib]EGK([Suc-X5])STFS[Aib]RRK(Ac)-NH2)
